Tested on in the first data set: not given
Test: not given
To be noted: from C=CCCC(C#N)c1nc(-c2nnc(C(O)(c3cccc(I)c3)C(F)(F)F)o2)c(NC(=O)OC(C)(C)C)cc1C(F)(F)F; cc_pd bond; 15-membered ring; Pd(OAc)2/P(o-tol)3/Et3N; MeCN; 9.4 mM; 80.0 °C.
T1 sequence (P13569 with tags, fused parts or gaps DEL508-508): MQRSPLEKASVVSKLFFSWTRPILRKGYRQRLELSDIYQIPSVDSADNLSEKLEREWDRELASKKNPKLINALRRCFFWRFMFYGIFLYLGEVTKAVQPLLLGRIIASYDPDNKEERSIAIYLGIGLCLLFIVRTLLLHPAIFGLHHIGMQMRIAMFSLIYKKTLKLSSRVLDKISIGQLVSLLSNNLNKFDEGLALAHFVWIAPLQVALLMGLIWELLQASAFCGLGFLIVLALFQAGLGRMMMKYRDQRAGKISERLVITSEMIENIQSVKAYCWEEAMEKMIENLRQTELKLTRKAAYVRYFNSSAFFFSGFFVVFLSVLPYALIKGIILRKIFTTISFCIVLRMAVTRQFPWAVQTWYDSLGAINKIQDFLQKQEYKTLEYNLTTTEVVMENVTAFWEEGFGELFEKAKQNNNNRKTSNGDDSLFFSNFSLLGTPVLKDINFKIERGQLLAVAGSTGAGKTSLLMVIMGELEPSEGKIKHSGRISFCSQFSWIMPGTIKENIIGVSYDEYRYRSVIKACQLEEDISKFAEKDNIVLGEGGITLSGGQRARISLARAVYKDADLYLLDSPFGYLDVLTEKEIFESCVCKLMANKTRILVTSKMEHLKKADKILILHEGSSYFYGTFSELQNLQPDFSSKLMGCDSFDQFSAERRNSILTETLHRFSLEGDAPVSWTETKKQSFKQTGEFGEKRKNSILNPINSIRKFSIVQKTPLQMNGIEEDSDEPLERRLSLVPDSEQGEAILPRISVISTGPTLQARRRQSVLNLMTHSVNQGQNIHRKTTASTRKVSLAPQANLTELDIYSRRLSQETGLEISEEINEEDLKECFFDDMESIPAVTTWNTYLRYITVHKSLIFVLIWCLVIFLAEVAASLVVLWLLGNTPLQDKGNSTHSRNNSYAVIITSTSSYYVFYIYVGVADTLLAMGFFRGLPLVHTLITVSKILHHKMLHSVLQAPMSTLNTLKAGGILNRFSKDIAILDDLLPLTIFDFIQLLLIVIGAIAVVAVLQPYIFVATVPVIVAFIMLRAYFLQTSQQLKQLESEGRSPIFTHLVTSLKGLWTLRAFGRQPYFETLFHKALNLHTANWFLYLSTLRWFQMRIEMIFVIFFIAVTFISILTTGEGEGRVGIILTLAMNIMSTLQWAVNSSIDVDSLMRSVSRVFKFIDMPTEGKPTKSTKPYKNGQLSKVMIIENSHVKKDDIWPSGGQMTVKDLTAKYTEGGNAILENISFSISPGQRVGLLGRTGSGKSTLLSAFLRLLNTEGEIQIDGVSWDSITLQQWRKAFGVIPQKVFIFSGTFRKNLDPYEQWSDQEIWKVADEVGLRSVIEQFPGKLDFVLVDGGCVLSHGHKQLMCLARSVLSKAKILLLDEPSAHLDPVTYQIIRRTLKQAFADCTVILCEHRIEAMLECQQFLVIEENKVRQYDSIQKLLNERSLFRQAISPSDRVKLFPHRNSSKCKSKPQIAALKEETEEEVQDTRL
`CC(C)(C)OC(=O)Nc1cc(C(F)(F)F)c2nc1-c1nnc(o1)C(O)(C(F)(F)F)c1cccc(c1)C=CCCC2C#N` (mixture of isomers) showed a ring closure, isolated yield of 93%.

Still in this data set, the particulars now being: from C=CCCC(OC)c1nc(-c2nnc(C(O)(c3cc(I)ccc3F)C(F)(F)F)o2)c(NC(=O)OC(C)(C)C)cc1C(F)(F)F; cc_pd bond; 15-membered ring; Pd(OAc)2/P(o-tol)3/Et3N; MeCN; 6.3 mM; 80.0 °C; 16.0 h.
`COC1CCC=Cc2ccc(F)c(c2)C(O)(C(F)(F)F)C2=NN=C(O2)c2nc1c(C(F)(F)F)cc2NC(=O)OC(C)(C)C` (mixture of isomers) registered a ring closure, isolated yield of 62%.

The same data set, now with this note: from CC(C)(C)OC(=O)Nc1cc(C(F)(F)F)c(C(=O)O)nc1-c1nnc(C(CCCCNC2CC(F)(F)C2)(OCc2ccccc2)C(F)(F)F)o1; amide bond; 13-membered ring; HATU/DIEA; DMF; 2.67 mM; 1.0 h.
Compound `CC(C)(C)OC(=O)Nc1cc(C(F)(F)F)c2nc1-c1nnc(o1)C(OCc1ccccc1)(C(F)(F)F)CCCCN(C1CC(F)(F)C1)C2=O` (centres unmarked) came in with a ring closure, isolated yield of 33%.

Staying with this data set, now noted: from CC(C)NCCCCC(OCc1ccccc1)(c1nnc(-c2nc(CC(=O)O)c(C(F)(F)F)cc2N)o1)C(F)(F)F; amide bond; 14-membered ring; T3P/DIEA; EtOAc/NMP; 33.9 mM; 2.0 h.
`CC(C)N1CCCCC(OCc2ccccc2)(C(F)(F)F)C2=NN=C(O2)c2nc(c(C(F)(F)F)cc2N)CC1=O` (centres unmarked) came in with a ring closure, isolated yield of 23%.

Staying with this data set, now noted: from CNCCCCC(OCc1ccccc1)(c1nnc(-c2nc(CC(=O)O)c(C(F)(F)F)cc2N)o1)C(F)(F)F; amide bond; 14-membered ring; T3P/DIEA; EtOAc/NMP; 35.7 mM; 5.0 h.
`CN1CCCCC(OCc2ccccc2)(C(F)(F)F)C2=NN=C(O2)c2nc(c(C(F)(F)F)cc2N)CC1=O` (centres unmarked) gave a ring closure, isolated yield of 45%.

Staying with this data set, now noted: from Nc1cc(C(F)(F)F)c(CC(=O)O)nc1-c1nnc(C(CCCCNCc2ccccc2)(OCc2ccccc2)C(F)(F)F)o1; amide bond; 14-membered ring; T3P/DIEA; EtOAc/NMP; 31.5 mM; 2.0 h.
`Nc1cc(C(F)(F)F)c2nc1-c1nnc(o1)C(OCc1ccccc1)(C(F)(F)F)CCCCN(Cc1ccccc1)C(=O)C2` (centres unmarked) gave a ring closure, isolated yield of 66%.

The next data set addresses T1, CFTR in F508del/MF-HBE cells (Homo sapiens, UniProt P13569, DEL508-508).
T1 construct: human bronchial epithelial (HBE) cells derived from CF subjects heterozygous for F508del and a minimal function CFTR mutation; endogenous in cells; host or cells: primary human bronchial epithelial cells from CF subjects (F508del/MF-HBE)
The data set can be described thus: Ussing chamber assay of CFTR-mediated short-circuit currents (identification of potentiator compounds). In kind it is cell-based. To be noted: potentiator incubated 18-24 hours at 37° C. in combination with 10 μM corrector, in the presence of 20% human serum, CFTR-mediated ISC. In outline:
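F508del/MF-HBE cultures were preincubated 18-24 h at 37° C with potentiator plus 10 μM of a fixed corrector compound in 20% human serum; compounds were kept present during measurement. ISC was recorded under voltage clamp (0 mV, 37° C, amiloride apical) and taken as the 20 μM forskolin peak minus the current after inhibitor cocktail.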
As for `Nc1cc(C(F)(F)F)c2nc1-c1nnc(o1)[C@@](O)(C(F)(F)F)CCCCCN(CC(C1CC1)C1CC1)C2=O` [Compound 251, (6R)-17-amino-12-(2,2-dicyclopropylethyl)-6-hydroxy-6,15-bis(trifluoromethyl)-19-oxa-3,4,12,18-tetrazatricyclo [12.3.1.12,5] nonadeca-1(18),2,4,14,16-pentaen-13-one], the EC50 is more than 1000 nM.

On to `Nc1cc(C(F)(F)F)c2nc1-c1nnc(o1)[C@@](O)(C(F)(F)F)CCCCCN(CC1CC13CC3)C2=O` (stereo partly drawn) [Compound 252, (6R)-17-amino-6-hydroxy-12-(spiro[2.2]pentan-2-ylmethyl)-6,15-bis(trifluoromethyl)-19-oxa-3,4,12,18-tetrazatricyclo [12.3.1.12,5] nonadeca-1(18),2,4,14,16-pentaen-13-one], for which the EC50 is less than 500 nM.

As for `Nc1cc(C(F)(F)F)c2nc1-c1nnc(o1)[C@@](O)(C(F)(F)F)CCCCCN(C1(C3CC3)CC1)C2=O` [Compound 253, (6R)-17-amino-12-(1-cyclopropylcyclo-propyl)-6-hydroxy-6,15-bis(trifluoromethyl)-19-oxa-3,4,12,18-tetrazatricyclo [12.3.1.12,5] nonadeca-1(18),2,4,14,16-pentaen-13-one], the EC50 is less than 500 nM.

On to `Nc1cc(C(F)(F)F)c2nc1-c1nnc(o1)[C@@](O)(C(F)(F)F)CCCCCN(Cc1cccc(OC(F)F)c1)C2=O` [Compound 254, (6R)-17-amino-12-[[3-(difluoromethoxy)phenyl]methyl]-6-hydroxy-6,15-bis(trifluoromethyl)-19-oxa-3,4,12,18-tetrazatricyclo [12.3.1.12,5] nonadeca-1(18),2,4,14,16-pentaen-13-one], for which the EC50 was less than 500 nM.

As for `Nc1cc(C(F)(F)F)c2nc1-c1nnc(o1)[C@@](O)(C(F)(F)F)CCCCCN(Cc1ccc(F)c(C3CC3)c1)C2=O` [Compound 255, (6R)-17-amino-12-[(3-cyclopropyl-4-fluoro-phenyl)methyl]-6-hydroxy-6,15-bis(trifluoromethyl)-19-oxa-3,4,12,18-tetrazatricyclo [12.3.1.12,5] nonadeca-1(18),2,4,14,16-pentaen-13-one], the concentration giving a half-maximal response (EC50) is less than 500 nM.

As to `Nc1cc(C(F)(F)F)c2nc1-c1nnc(o1)[C@@](O)(C(F)(F)F)CCCCCN(Cc1ccc(F)c(C3CCC3)c1)C2=O` [Compound 256, (6R)-17-amino-12-[(3-cyclobutyl-4-fluoro-phenyl)methyl]-6-hydroxy-6,15-bis(trifluoromethyl)-19-oxa-3,4,12,18-tetrazatricyclo [12.3.1.12,5] nonadeca-1(18),2,4,14,16-pentaen-13-one], the EC50 was less than 500 nM.

For the compound `Nc1cc(C(F)(F)F)c2nc1-c1nnc(o1)[C@@](O)(C(F)(F)F)CCCCCN(Cc1cc(F)cc(Cl)c1)C2=O` [Compound 257, (6R)-17-amino-12-[(3-chloro-5-fluoro-phenyl)methyl]-6-hydroxy-6,15-bis(trifluoromethyl)-19-oxa-3,4,12,18-tetrazatricyclo [12.3.1.12,5] nonadeca-1(18),2,4,14,16-pentaen-13-one], the EC50 was less than 500 nM.

As to `Nc1cc(C(F)(F)F)c2nc1-c1nnc(o1)[C@@](O)(C(F)(F)F)CCCCCN(Cc1cc(F)cc(C(F)(F)F)c1)C2=O` [Compound 258, (6R)-17-amino-12-[[3-fluoro-5-(trifluoromethyl)phenyl]methyl]-6-hydroxy-6,15-bis(trifluoromethyl)-19-oxa-3,4,12,18-tetrazatricyclo [12.3.1.12,5] nonadeca-1(18),2,4,14,16-pentaen-13-one], the EC50 is less than 500 nM.

On to `Nc1cc(C(F)(F)F)c2nc1-c1nnc(o1)[C@@](O)(C(F)(F)F)CCCCCN(Cc1cc(C3CC3)ccc1F)C2=O` [Compound 259, (6R)-17-amino-12-[(5-cyclopropyl-2-fluoro-phenyl)methyl]-6-hydroxy-6,15-bis(trifluoromethyl)-19-oxa-3,4,12,18-tetrazatricyclo [12.3.1.12,5] nonadeca-1(18),2,4,14,16-pentaen-13-one], for which the EC50 is less than 500 nM.

For the compound `Nc1cc(C(F)(F)F)c2nc1-c1nnc(o1)[C@@](O)(C(F)(F)F)CCCCCN(Cc1cc(C3CCC3)ccc1F)C2=O` [Compound 260, (6R)-17-amino-12-[(5-cyclobutyl-2-fluoro-phenyl)methyl]-6-hydroxy-6,15-bis(trifluoromethyl)-19-oxa-3,4,12,18-tetrazatricyclo [12.3.1.12,5] nonadeca-1(18),2,4,14,16-pentaen-13-one], the EC50 is less than 500 nM.

For `Nc1cc(C(F)(F)F)c2nc1-c1nnc(o1)[C@@](O)(C(F)(F)F)CCCCCN(Cc1ccc(OC(F)(F)F)c(F)c1)C2=O` [Compound 265, (6R)-17-amino-12-[[3-fluoro-4-(trifluoromethoxy)phenyl]methyl]-6-hydroxy-6,15-bis(trifluoromethyl)-19-oxa-3,4,12,18-tetrazatricyclo [12.3.1.12,5] nonadeca-1(18),2,4,14,16-pentaen-13-one], the EC50 is less than 500 nM.

`Nc1cc(C(F)(F)F)c2nc1-c1nnc(o1)[C@@](O)(C(F)(F)F)CCCCCN(Cc1ccc(OC(F)F)cc1)C2=O` [Compound 266, (6R)-17-amino-12-[[4-(difluoromethoxy)phenyl]methyl]-6-hydroxy-6,15-bis(trifluoromethyl)-19-oxa-3,4,12,18-tetrazatricyclo [12.3.1.12,5] nonadeca-1(18),2,4,14,16-pentaen-13-one]: the EC50 is less than 500 nM.

On to `Nc1cc(C(F)(F)F)c2nc1-c1nnc(o1)[C@@](O)(C(F)(F)F)CCCCCN(Cc1ccc(OC(F)F)c(F)c1)C2=O` [Compound 267, (6R)-17-amino-12-[[4-(difluoromethoxy)-3-fluoro-phenyl]methyl]-6-hydroxy-6,15-bis(trifluoromethyl)-19-oxa-3,4,12,18-tetrazatricyclo [12.3.1.12,5] nonadeca-1(18),2,4,14,16-pentaen-13-one], for which the EC50 was less than 500 nM.

Regarding `Nc1cc(C(F)(F)F)c2nc1-c1nnc(o1)[C@@](O)(C(F)(F)F)CCCCCN(Cc1ccc(OC(F)F)nc1)C2=O` [Compound 268, (6R)-17-amino-12-[[6-(difluoromethoxy)-3-pyridyl]methyl]-6-hydroxy-6,15-bis(trifluoromethyl)-19-oxa-3,4,12,18-tetrazatricyclo [12.3.1.12,5] nonadeca-1(18),2,4,14,16-pentaen-13-one], the EC50 was less than 500 nM.

Consider `Nc1cc(C(F)(F)F)c2nc1-c1nnc(o1)[C@@](O)(C(F)(F)F)CCCCCN(Cc1ccnc(OC(F)F)c1)C2=O` [Compound 269, (6R)-17-amino-12-[[2-(difluoromethoxy)-4-pyridyl]methyl]-6-hydroxy-6,15-bis(trifluoromethyl)-19-oxa-3,4,12,18-tetrazatricyclo [12.3.1.12,5] nonadeca-1(18),2,4,14,16-pentaen-13-one], for which the EC50 was more than 1000 nM.

Turning to `Nc1cc(C(F)(F)F)c2nc1-c1nnc(o1)[C@@](O)(C(F)(F)F)CCCCCN(Cc1ccnc(OC3CCC3)c1)C2=O` [Compound 270, (6R)-17-amino-12-[[2-(cyclobutoxy)-4-pyridyl]methyl]-6-hydroxy-6,15-bis(trifluoromethyl)-19-oxa-3,4,12,18-tetrazatricyclo [12.3.1.12,5] nonadeca-1(18),2,4,14,16-pentaen-13-one], the EC50 is less than 500 nM.

With `N#Cc1cccc(CN2CCCCC[C@](O)(C(F)(F)F)C3=NN=C(O3)c3nc(c(C(F)(F)F)cc3N)C2=O)c1` [Compound 271, 3-[[(6R)-17-amino-6-hydroxy-13-oxo-6,15-bis(trifluoromethyl)-19-oxa-3,4,12,18-tetrazatricyclo[12.3.1.12,5]nonadeca-1(18),2,4,14,16-pentaen-12-yl]methyl]benzonitrile], the EC50 was less than 500 nM.

For the origin of these results see US20250122218A1, “MODULATORS OF CYSTIC FIBROSIS TRANSMEMBRANE CONDUCTANCE REGULATOR” (Vertex Pharmaceuticals Incorporated, priority 2022, published 2025).
